From ChEMBL document CHEMBL1201862, “PubChem BioAssay data set” (2004)
Activity calls are given as the source filed them.

Tests used:
Cytochrome P450 3A4 = Cytochrome P450 3A4 (Homo sapiens, UniProt P08684);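 further: CYP3A4 tested as one member of a cytochrome P450 panel screen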
[1] = target: Beta-adrenergic receptor kinase 1 (Homo sapiens, UniProt P25098); test: blockers of aptamer binding to GRK2 – biochemical, flow cytometry beads, FAM-aptamer, powder set 1, dose response (AID 588720)
[2] = target: T1, Carboxy-terminal domain RNA polymerase II polypeptide A small phosphatase 1 (Homo sapiens, UniProt Q9GZU7); test: CTDSP1 inhibitors, concentration-response, biochemical, absorbance readout, ultra-high-throughput screen actives (AID 540297); assay type: functional
T1 sequence (Q9GZU7 whole entry): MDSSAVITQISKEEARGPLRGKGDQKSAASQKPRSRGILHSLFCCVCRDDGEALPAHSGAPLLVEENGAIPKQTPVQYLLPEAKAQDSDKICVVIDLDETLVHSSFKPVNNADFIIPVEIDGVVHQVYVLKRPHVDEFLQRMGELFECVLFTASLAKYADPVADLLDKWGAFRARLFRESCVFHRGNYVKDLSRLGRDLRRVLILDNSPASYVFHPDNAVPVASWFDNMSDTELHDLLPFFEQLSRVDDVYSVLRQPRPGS

[3] = NIH-3T3 fibroblast cytotoxicity, dose response, cytotoxicity control, cell-based, fluorescence, Alamar Blue, secondary assay (AID 2327); assay type: functional;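 further: NIH-3T3 mouse fibroblasts cultured with fluconazole at 8 µg/mL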
[4] = decrease of insulin promoter-GFP reporter – imaging, high-content screening, mouse beta cells (AID 1628); assay type: functional; settings: MIN6
[5] = test system: Streptococcus sp. 'group A'; test: Streptococcus pyogenes SK(-)GAS viability under kanamycin – luminescence, BacTiterGlo, confirmation, counter-screen for streptokinase expression inhibitor project, dose response (AID 1900); assay type: functional, organism-based
cells [6] = assay type: functional, cell-based
[7] = MIN6 cell viability loss – mouse insulinoma, cytotoxicity control, dose response (AID 2122); assay type: functional;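 further: confirmatory high-throughput counterscreen run to flag cytotoxic compounds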
[8] = fluconazole-exposed Candida albicans growth modulators – fluorescence, retest, confirmation (AID 2467); assay type: functional, cell-based
[9] = HPDE-C7 pancreatic duct cell viability loss – fluorescence, HTS (AID 430); assay type: functional, cell-based; settings: Homo sapiens
[10] = viability loss of HPDE-C7K cells – cell-based, fluorescence, HTS, primary screen (AID 431); assay type: functional; settings: Homo sapiens
cells [11] = assay type: functional, cell-based; remark: listed apart in the source
[12] = target: T2, Serine/threonine-protein phosphatase (Candida dubliniensis (strain CD36 / CBS 7987 / NCPF 3949 / NRRLY-17841) (Yeast), UniProt B9W6M3); test: blockers of CaCl2-induced CDRE-lacZ signaling – S. cerevisiae, luminescence, secondary, dose response (AID 2388); assay type: functional, cell-based;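 further: yeast reporter cells carrying a calcineurin-responsive lacZ construct stimulated with calcium chloride; luminescent beta-galactosidase reporter signal in whole cells rather than isolated phosphatase activity; potency for inhibition where a drop in reporter signal means calcineurin blockade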
T2 sequence (B9W6M3 whole entry): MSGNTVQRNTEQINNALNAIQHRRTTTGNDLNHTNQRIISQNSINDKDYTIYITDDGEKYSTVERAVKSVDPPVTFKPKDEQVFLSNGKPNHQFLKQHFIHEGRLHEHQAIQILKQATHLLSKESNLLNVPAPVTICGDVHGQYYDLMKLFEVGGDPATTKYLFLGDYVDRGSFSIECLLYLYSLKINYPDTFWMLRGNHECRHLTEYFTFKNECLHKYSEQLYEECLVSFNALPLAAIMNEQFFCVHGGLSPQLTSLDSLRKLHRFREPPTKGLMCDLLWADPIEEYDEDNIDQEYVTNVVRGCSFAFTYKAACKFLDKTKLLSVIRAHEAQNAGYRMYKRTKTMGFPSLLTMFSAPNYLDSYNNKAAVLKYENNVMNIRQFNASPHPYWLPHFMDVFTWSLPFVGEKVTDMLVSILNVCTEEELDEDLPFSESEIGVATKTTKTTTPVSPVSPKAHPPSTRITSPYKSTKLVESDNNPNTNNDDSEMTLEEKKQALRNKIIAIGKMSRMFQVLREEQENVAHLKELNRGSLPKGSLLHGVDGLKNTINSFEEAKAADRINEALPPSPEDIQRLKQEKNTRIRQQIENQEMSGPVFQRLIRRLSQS

Streptococcus = test: GAS UMAA2166 growth inhibition – luminescence, BacTiterGlo, counter-screen for streptokinase expression inhibitor project, dose response (AID 1915); assay type: functional, organism-based;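 further: potency for reduction of bacterial viability or growth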
Exodeoxyribonuclease V = Exodeoxyribonuclease V (Escherichia coli (strain K12), UniProt P04993+P07648+P08394); test: RecBCD inhibition via phage-restricted bacterial growth – absorbance, V66 E. coli, mutant T4 phage, counter-screen for AddAB inhibitor project, dose response (AID 492957); assay type: functional, cell-based, Escherichia coli str. K-12 substr. MG1655
Chain of Exodeoxyribonuclease V (P04993 whole entry): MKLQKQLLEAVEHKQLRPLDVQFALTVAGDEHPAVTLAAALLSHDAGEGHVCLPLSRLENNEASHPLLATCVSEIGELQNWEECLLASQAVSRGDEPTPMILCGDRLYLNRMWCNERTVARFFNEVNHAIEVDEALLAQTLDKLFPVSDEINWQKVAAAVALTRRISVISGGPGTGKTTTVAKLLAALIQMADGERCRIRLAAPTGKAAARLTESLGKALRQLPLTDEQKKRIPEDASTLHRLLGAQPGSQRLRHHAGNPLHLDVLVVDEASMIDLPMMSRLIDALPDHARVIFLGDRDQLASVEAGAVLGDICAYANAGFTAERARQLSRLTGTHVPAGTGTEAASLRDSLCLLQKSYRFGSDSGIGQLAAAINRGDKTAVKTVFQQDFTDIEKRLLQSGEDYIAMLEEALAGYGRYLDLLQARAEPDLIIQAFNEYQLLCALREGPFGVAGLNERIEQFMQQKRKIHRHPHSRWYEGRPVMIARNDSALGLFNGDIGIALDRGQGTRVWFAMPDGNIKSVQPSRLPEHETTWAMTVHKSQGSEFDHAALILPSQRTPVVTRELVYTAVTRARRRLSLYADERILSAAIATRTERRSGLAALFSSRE
Chain of Exodeoxyribonuclease V (P07648 whole entry): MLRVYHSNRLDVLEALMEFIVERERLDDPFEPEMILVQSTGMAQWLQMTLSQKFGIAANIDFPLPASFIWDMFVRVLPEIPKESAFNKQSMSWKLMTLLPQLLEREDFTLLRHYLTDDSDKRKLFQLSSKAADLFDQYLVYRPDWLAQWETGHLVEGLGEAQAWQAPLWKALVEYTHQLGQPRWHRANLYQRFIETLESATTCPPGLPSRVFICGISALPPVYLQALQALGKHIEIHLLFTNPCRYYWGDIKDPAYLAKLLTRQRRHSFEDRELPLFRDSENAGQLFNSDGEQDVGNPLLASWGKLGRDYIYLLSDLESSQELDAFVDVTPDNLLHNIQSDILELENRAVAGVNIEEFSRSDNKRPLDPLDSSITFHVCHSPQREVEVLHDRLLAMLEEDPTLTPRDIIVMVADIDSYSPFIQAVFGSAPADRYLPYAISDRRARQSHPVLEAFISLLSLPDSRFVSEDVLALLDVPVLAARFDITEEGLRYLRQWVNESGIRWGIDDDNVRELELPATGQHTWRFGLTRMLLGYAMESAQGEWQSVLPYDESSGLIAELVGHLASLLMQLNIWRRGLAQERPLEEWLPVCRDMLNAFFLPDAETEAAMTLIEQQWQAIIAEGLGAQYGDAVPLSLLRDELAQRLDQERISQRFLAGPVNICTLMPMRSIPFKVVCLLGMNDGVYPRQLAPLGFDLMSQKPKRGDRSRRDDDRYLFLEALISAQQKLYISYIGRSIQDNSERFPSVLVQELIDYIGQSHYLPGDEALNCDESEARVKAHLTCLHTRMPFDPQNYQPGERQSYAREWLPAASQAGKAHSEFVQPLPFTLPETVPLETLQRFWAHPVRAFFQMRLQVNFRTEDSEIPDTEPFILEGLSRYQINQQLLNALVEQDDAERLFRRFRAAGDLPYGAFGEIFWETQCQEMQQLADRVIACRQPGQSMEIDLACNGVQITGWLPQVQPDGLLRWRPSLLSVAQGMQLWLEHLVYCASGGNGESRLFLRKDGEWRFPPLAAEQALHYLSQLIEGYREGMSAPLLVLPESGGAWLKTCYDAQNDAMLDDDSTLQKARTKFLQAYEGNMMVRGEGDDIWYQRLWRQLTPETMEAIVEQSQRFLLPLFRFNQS
Chain of Exodeoxyribonuclease V (P08394 whole entry): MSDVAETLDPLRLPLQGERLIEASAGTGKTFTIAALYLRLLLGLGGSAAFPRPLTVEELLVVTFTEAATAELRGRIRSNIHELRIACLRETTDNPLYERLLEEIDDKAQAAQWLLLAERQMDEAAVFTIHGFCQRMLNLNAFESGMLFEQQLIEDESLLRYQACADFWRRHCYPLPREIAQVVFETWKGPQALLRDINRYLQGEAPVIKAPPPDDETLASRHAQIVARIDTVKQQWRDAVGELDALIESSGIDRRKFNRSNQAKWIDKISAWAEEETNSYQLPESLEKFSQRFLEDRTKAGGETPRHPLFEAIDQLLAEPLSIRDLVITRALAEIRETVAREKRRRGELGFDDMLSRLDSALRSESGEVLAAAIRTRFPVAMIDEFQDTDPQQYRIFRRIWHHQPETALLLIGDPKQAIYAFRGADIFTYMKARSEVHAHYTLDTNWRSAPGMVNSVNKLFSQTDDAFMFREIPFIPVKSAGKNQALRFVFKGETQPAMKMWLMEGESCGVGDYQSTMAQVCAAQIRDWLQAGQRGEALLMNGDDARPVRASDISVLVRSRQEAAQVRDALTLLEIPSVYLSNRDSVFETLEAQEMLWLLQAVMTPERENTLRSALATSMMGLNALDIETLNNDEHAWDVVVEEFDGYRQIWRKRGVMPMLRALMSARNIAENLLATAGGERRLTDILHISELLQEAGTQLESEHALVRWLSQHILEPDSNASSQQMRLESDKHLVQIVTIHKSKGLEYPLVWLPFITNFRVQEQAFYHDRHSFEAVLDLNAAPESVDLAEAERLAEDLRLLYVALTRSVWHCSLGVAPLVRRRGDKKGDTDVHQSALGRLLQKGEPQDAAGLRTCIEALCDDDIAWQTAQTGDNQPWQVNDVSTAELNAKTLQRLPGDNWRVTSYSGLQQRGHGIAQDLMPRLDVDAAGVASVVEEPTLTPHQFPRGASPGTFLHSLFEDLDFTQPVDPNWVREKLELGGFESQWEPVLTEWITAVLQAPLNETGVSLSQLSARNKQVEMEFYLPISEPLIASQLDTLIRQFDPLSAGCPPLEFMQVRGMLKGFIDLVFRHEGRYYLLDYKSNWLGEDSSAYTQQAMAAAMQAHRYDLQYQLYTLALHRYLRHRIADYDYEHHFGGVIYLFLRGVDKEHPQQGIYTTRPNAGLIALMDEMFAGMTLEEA

[13] = Counterscreen for AddAB inhibitors: absorbance-based bacterial cell-based high throughput dose response assay for inhibitors of bacterial viability. [Related pubchem assays (depositor defined):AID435030, AID449728, AID449731, AID488942, AID488955, AID488956]; assay type: functional
HEK293 = test: EBV LMP1 TES2 canonical NF-kB signalling blockers – cell-based, HEK293, luciferase, cherry-pick, dose response (AID 588343); assay type: functional; settings: Homo sapiens
[14] = target: Heat shock protein HSP 90-alpha (Homo sapiens, UniProt P07900); assay type: functional, organism-based
Vero = test: cells; assay type: functional, cell-based; settings: Chlorocebus sabaeus
[15] = target: ATP-dependent molecular chaperone HSP82 (Candida albicans (strain WO-1) (Yeast), UniProt C4YTQ8); test: steroid-induced GRE reporter decrease in yeast – S. cerevisiae, luminescence, Hsp90 inhibitor project, dose response (AID 2400); assay type: functional, cell-based;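 further: beta-galactosidase luminescence from glucocorticoid response element reporter as proxy for Hsp90 function; inhibitor potency where signal loss means Hsp90 inhibition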
Chain of ATP-dependent molecular chaperone HSP82 (C4YTQ8 whole entry): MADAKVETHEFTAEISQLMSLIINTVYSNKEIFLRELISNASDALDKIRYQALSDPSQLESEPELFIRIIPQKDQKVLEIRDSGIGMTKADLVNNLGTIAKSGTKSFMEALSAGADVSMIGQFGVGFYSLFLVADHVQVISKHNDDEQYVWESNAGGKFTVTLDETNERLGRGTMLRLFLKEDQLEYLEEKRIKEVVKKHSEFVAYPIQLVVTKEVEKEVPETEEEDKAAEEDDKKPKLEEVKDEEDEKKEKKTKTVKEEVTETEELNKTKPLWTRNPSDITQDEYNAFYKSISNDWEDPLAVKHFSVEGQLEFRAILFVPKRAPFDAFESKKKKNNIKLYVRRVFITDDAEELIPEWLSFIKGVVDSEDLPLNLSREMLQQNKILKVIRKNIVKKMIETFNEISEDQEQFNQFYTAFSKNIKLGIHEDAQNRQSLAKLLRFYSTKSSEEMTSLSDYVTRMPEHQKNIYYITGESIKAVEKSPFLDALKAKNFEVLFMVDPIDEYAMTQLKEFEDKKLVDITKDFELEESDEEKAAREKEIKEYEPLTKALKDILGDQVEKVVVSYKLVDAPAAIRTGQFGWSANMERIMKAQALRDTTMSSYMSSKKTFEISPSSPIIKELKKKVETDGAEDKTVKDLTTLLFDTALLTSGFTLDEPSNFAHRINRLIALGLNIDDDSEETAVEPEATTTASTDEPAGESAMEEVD

ORF 73 = target: T3, ORF 73 (Human herpesvirus 8, UniProt O40947); test: KSHV LANA DNA-binding disruption – biochemical, fluorescence polarization, cherry-picked samples, dose response (AID 504725); parameters: species or system Human gammaherpesvirus 8;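 further: fluorescence polarization of a labeled DNA duplex reporting LANA DNA binding; potency is for inhibitors that block LANA binding to the DNA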
T3 sequence (O40947 whole entry): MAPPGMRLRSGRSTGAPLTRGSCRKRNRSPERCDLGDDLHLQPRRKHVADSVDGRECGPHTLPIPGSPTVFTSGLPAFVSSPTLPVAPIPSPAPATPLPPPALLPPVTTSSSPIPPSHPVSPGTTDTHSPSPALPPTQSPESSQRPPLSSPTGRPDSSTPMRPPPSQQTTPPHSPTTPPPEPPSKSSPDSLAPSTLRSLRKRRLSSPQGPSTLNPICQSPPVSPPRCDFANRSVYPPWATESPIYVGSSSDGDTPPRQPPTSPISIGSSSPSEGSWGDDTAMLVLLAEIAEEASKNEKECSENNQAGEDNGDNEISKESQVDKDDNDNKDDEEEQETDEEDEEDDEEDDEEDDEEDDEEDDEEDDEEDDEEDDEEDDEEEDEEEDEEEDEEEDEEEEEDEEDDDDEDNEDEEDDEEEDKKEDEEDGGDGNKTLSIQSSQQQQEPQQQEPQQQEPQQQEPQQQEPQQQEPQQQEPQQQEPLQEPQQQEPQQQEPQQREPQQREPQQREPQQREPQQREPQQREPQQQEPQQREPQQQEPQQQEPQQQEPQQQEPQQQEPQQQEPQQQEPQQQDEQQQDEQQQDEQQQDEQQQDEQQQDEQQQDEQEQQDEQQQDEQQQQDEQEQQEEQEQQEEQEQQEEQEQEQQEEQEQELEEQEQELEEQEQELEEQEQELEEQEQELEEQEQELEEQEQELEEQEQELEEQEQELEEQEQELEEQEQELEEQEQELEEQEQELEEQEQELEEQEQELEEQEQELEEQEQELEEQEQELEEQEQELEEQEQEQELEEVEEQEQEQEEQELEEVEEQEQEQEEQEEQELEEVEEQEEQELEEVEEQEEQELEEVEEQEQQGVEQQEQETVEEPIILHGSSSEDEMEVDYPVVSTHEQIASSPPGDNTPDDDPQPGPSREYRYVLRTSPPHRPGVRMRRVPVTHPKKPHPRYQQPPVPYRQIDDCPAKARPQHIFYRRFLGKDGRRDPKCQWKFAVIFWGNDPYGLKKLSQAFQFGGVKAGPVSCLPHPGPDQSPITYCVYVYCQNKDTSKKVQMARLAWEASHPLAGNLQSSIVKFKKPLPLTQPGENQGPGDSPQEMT

Keap1/Nrf2 = Keap1/Nrf2 (Homo sapiens, UniProt Q14145); test: disruptors of Keap1 binding to Nrf2 peptide – biochemical, fluorescence polarization, cherry-picked samples, dose response (AID 588683)

Chain of Cytochrome P450 3A4 (P08684 whole entry): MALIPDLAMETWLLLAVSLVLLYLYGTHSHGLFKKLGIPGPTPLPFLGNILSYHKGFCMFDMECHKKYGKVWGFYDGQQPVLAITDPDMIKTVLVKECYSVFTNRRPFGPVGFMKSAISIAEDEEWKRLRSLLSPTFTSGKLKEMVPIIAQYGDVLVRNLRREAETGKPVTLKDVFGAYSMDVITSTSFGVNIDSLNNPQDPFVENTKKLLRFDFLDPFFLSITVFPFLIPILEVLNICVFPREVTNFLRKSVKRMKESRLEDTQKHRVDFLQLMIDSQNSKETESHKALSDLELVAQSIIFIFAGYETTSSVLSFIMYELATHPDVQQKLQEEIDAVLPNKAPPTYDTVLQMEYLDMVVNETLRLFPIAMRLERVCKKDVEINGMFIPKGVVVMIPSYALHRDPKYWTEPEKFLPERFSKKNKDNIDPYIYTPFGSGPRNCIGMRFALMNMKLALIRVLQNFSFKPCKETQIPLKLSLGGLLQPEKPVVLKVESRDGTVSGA
Chain of Beta-adrenergic receptor kinase 1 (P25098 whole entry, the tested form may be a part): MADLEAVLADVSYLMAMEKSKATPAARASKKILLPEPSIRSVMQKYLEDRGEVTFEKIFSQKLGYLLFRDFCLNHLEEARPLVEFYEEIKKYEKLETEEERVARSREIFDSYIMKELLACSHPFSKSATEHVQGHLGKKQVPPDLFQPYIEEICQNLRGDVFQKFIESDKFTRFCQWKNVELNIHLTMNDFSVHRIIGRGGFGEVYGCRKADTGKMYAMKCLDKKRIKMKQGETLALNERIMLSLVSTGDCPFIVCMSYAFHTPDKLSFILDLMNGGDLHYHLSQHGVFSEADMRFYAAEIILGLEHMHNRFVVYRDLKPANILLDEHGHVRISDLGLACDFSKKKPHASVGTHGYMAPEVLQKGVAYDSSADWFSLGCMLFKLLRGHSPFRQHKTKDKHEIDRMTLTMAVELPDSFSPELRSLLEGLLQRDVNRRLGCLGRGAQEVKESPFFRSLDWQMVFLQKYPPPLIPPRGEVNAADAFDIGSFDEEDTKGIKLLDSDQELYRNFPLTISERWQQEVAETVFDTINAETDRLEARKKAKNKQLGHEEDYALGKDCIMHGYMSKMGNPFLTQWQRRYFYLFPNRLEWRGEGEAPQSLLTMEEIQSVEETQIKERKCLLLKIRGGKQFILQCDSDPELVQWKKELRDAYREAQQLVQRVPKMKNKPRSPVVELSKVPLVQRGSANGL

COCC(=O)N1CCC2(CC1)CN(C(c1ccccc1)c1ccccc1)C2
inconclusive: AC50 (Cytochrome P450 3A4)

O=C(CCS(=O)(=O)c1ccc(Br)cc1)NCc1cccs1
active: EC50 [1] 1.79 µM | IC50 [2] 48 µM

Oc1c(C(Nc2nc3ccccc3s2)c2ccco2)ccc2cccnc12 (configuration not stated)
> 350 µM (not active): EC50 (cells [11])
inactive: EC50 [12] > 180 µM | IC50 (Exodeoxyribonuclease V) > 119 µM | IC50 [13] > 119 µM
active: EC50 [3] 12.9 µM | IC50 [4] 1.21 µM | EC50 [5] 1.76 µM | EC50 (cells [6]) 9.09 µM | IC50 [7] 0.896 µM | EC50 [8] 0.854 µM | EC50 [9] 8.6 µM | EC50 [10] 6.19 µM | EC50 (Streptococcus) 5.98 µM | AC50 (HEK293) 6.93 µM | AC50 [14] 24.1 µM | IC50 (Vero) > 25 µM | EC50 [15] 33.4 µM

Cc1nc(Cl)c2c(n1)N=C1CCCC(O)=C1O2
active: AC50 (ORF 73) 8.8 µM | AC50 (Keap1/Nrf2) 15.1 µM
